Measured values published in paper PMC7377239, “Cardiovascular Effects of Polychlorinated Biphenyls and Their Major Metabolites” (Environmental Health Perspectives, 2020).
Where a name gives a salt, the structure may show the parent alone. Read-outs that look alike come from different tables or passages of the source.

Tested on: iCell cardiomyocytes (human iPSC-derived cardiomyocytes)
Assay: Intracellular Ca2+ flux / beating parameters in iCell cardiomyocytes (FLIPR tetra), 90 min or 24 h
Format: cell-based
Conditions: Homo sapiens, Cardiomyocyte, 0.00 µM = 100.00; for activity at 0.1 µM: 0.10 µM
How it was run: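 Gelatin-plated iCell cardiomyocytes (5,000/well) were dye-loaded for 2 h at 37 °C, then exposed for 90 min or 24 h to PCBs/metabolites (5× plates at 0.05–500 µM; 0.5% DMSO final) in triplicate. Ca2+ flux was read for 100 s at 8 Hz and 37 °C. Peak height, frequency, spacing CV and decay/rise ratio were vehicle-normalized and fitted with a four-parameter logistic model, with POD set at 1 SD of vehicle.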

[1] = 1.5 h, read-out: cm.amp.avg.90min
[2] = 1.5 h, read-out: cm.amp.cv.90min
[3] = 1.5 h, read-out: cm.decay.rise.90min
[4] = 1.5 h, read-out: cm.spacing.cv.90min
[5] = 24 h, read-out: cm.amp.avg.24hrs
[6] = 24 h, read-out: cm.amp.cv.24hrs
[7] = 24 h, read-out: cm.decay.rise.24hrs
[8] = 24 h, read-out: cm.spacing.cv.24hrs

O=S(=O)(O)Oc1cc(-c2ccccc2)ccc1Cl [3-yl PCB 3 sulfate]
activity at 0.01 µM [1]: 95.2% | activity at 0.01 µM [2]: 101% | activity at 0.01 µM (1.5 h, read-out: cm.bpm.90min): 96.5% | activity at 0.01 µM [3]: 101% | activity at 0.01 µM [4]: 112% | activity at 0.1 µM [1]: 102% | activity at 0.1 µM [2]: 103% | activity at 0.1 µM (1.5 h, read-out: cm.bpm.90min): 97.8% | activity at 0.1 µM [3]: 105% | activity at 0.1 µM [4]: 107% | activity at 1 µM [1]: 96.9% | activity at 1 µM [2]: 94.9% | activity at 1 µM (1.5 h, read-out: cm.bpm.90min): 99.1% | activity at 1 µM [3]: 97.7% | activity at 1 µM [4]: 102% | activity at 10 µM [1]: 97.3% | activity at 10 µM [2]: 107% | activity at 10 µM (1.5 h, read-out: cm.bpm.90min): 96.5% | activity at 10 µM [3]: 96.9% | activity at 10 µM [4]: 101% | activity at 100 µM [1]: 113% | activity at 100 µM [2]: 90.5% | activity at 100 µM (1.5 h, read-out: cm.bpm.90min): 99.1% | activity at 100 µM [3]: 95.6% | activity at 100 µM [4]: 92.1% | activity at 0.01 µM [5]: 58.6% | activity at 0.01 µM [6]: 42.1% | activity at 0.01 µM (24 h, read-out: cm.bpm.24hrs): 49.6% | activity at 0.01 µM [7]: 54.9% | activity at 0.01 µM [8]: 62.7% | activity at 0.1 µM [5]: 51.9% | activity at 0.1 µM [6]: 31.8% | activity at 0.1 µM (24 h, read-out: cm.bpm.24hrs): 47.7% | activity at 0.1 µM [7]: 58% | activity at 0.1 µM [8]: 42.3% | activity at 1 µM [5]: 26.2% | activity at 1 µM [6]: 69.1% | activity at 1 µM (24 h, read-out: cm.bpm.24hrs): 46.8% | activity at 1 µM [7]: 51.2% | activity at 1 µM [8]: 53.3% | activity at 10 µM [5]: 79.1% | activity at 10 µM [6]: 146% | activity at 10 µM (24 h, read-out: cm.bpm.24hrs): 94.5% | activity at 10 µM [7]: 96.3% | activity at 10 µM [8]: 96.4% | activity at 100 µM [5]: 97.7% | activity at 100 µM [6]: 77.4% | activity at 100 µM (24 h, read-out: cm.bpm.24hrs): 85% | activity at 100 µM [7]: 116% | activity at 100 µM [8]: 85.3%
